Laboratory results from patent US7329754B2, “2,5-diazabicyclo[2.2.1]heptane derivatives” (Neurosearch A/S, priority 2001, dated 2008).
pIC50: −log10 of the molar value. Counter-ions that a name gives are not always drawn.

Molecular target: serotonin transporter (Rattus norvegicus, UniProt P31652)
Assay: Serotonin transporter/uptake assay: synaptosomal uptake of 3H-5-hydroxytryptamine
Assay type: biochemical
Conditions: not given
Description: In this example the biological activity of the compounds of the invention are determined using a serotonin transporter/uptake assay. Serotonin transporters/uptake sites on nerve terminals presumably function to terminate neuronal signaling by removing serotonin from the synaptic cleft. The activity of the serotonin transporter integral protein can be measured in vitro by synaptosomal uptake of ^3H-5-hydroxytryptamine.
Preparations are performed at 0-4° C. Cerebral cortices from male Wistar rats (150-200 g) are homogenized for 5-10 seconds in 100 volumes of ice-cold 0.32 M sucrose containing 1 mM pargyline, and using a motor driven teflon pestle in a glass homogenizing vessel.
Monoamine oxidase activity becomes inhibited by pargyline.
The homogenate is centrifuged at 1000×g for 10 minutes. The resulting supernatant is subjected to centrifugation at 27,000×g for 50 minutes, and the supernatant is discarded. The pellet (P2) is re-suspended in oxygenated (equilibrated with an atmosphere of 96% O2: 4% CO2 for at least 30 minutes) Krebs-Ringer incubation buffer (1000 ml per g of original tissue) at pH 7.2, containing 122 mM NaCl, 0.16 mM EDTA, 4.8 mM KCl, 12.7 mM Na2HPO4, 3.0 mM NaH2PO4, 1.2 mM MgSO4, 1 mM CaCl2, 10 mM glucose and 1 mM ascorbic acid.
Aliquots of 4.0 ml tissue suspension are added to 100 μl of test solution and 100 μl of ^3H-5-HT (1 nM, final concentration), mixed and incubated for 30 minutes at 37° C. Non-specific uptake is determined using Citalopram (1 μM, final concentration; Available from H. Lundbeck, Denmark), a serotonin reuptake inhibitor.
After incubation the samples are poured directly onto Whatman GF/C glass fibre filters under suction. The filters are washed three times with 5 ml of ice-cold 0.9% (w/v) NaCl solution.
The amount of radioactivity on the filters is determined by conventional liquid scintillation counting. Specific uptake is calculated as the difference between total uptake and non-specific uptake.
25-75% inhibition of specific binding must be obtained, before calculation of an IC50.
The test value is presented as IC50 (the concentration (μM) of the test substance which inhibits the specific binding of ^3H-5-HT by 50%), calculated according to the following equation: […]
where Co is specific binding in control assays and Cx is the specific binding in the test assay (the calculations assume normal mass-action kinetics).

Chain of serotonin transporter (P31652 whole entry): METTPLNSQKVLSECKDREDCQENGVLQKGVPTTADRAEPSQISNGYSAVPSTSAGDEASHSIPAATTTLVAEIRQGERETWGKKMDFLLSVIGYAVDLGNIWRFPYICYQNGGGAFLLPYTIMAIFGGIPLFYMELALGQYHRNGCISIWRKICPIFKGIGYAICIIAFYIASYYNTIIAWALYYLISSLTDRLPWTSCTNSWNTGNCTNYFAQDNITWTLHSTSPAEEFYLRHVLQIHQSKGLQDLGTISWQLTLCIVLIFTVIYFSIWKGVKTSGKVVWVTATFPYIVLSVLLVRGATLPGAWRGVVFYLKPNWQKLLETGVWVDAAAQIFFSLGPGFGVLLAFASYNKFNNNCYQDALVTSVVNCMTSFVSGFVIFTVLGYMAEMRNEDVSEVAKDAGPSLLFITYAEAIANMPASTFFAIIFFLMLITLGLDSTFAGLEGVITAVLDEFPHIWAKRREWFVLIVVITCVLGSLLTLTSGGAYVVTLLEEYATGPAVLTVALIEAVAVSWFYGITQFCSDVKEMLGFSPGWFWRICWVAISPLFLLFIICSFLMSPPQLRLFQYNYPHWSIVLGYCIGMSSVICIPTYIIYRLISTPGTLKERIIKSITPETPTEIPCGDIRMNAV

First: c1ccc2nc(N3C[C@@H]4C[C@H]3CN4)ccc2c1 [Compound 1, 2-(2-Quinolinyl)-(1S,4S)-2,5-diazabicyclo-[2.2.1]-heptane fumaric acid salt]
Second: O=[N+]([O-])c1ccc2nc(N3C[C@@H]4C[C@H]3CN4)ccc2c1 [Compound 3, 2-(6-Nitro-2-quinolinyl)-(1S,4S)-2,5-diazabicyclo-[2.2.1]-heptane fumaric acid salt]
The pIC50 of the first is 2.56 log units lower: 7.06 for the first, 9.62 for the second. The second is the more potent here.

In the case of `CN1C[C@@H]2C[C@H]1CN2c1ccc2cc([N+](=O)[O-])ccc2n1` [Compound 4, 2-(6-Nitro-2-quinolinyl)-5-methyl-(1S,4S)-2,5-diazabicyclo-[2.2.1]-heptane fumaric acid salt], the pIC50 was 8.47.

Same assay, conditions: synaptosomes from cerebral cortices of male Wistar rats; 3H-5-HT 1 nM; 30 minutes at 37° C.; read-out: Serotonin uptake IC50

Compared with `CN1C[C@@H]2C[C@H]1CN2c1ccc2ccccc2n1` [Compound 2, 2-(2-Quinolinyl)-5-methyl-(1S,4S)-2,5-diazabicyclo-[2.2.1]-heptane], `CN1C[C@@H]2C[C@H]1CN2c1ccc2cc(N)ccc2n1` [Compound 5, 2-(6-Amino-2-quinolinyl)-5-methyl-(1S,4S)-2,5-diazabicyclo-[2.2.1]-heptane fumaric acid salt] is 0.81 log units lower in pIC50: 6.89 for the first, 6.08 for the second. The first is the more potent here.

`c1ccc2sc(N3C[C@@H]4C[C@H]3CN4)nc2c1` [Compound 7, 2-(2-Benzothiazolyl)-(1S,4S)-2,5-diazabicyclo-[2.2.1]-heptane fumaric acid salt] showed a pIC50 of 6.46.
